Reference: ChEMBL document CHEMBL1132858, “1,1-Dimethylallylcoumarins potently suppress both lipopolysaccharide- and interferon-gamma-induced nitric oxide generation in mouse macrophage RAW 264.7 cells” (2000)
Calls of active or inactive are those of the source. The calls are words filed in the database; no cut-off is given here.

Organism: Mus musculus
Assay: Compound was tested for cytotoxicity against mouse macrophage RAW 264.7 cells using MTT assay; Inactive
Format: functional, cell-based

SMILES	Activity
C=C1COC2Oc3ccc4ccc(=O)oc4c3C12 (stereo not drawn)	inactive
C=CCOc1ccc2ccc(=O)oc2c1	inactive
COc1ccc2ccc(=O)oc2c1C1=C(C)COC1=O	inactive
O=c1ccc2c(O)cc(O)cc2o1	inactive
C=CCc1c(O)ccc2ccc(=O)oc12	inactive
CC(C)(O)[C@@H]1Cc2c(ccc3ccc(=O)oc23)O1	inactive
C=C(C)[C@H]1O[C@@H]1c1c(OC)ccc2ccc(=O)oc12	inactive

Organism: Mus musculus
Assay: Percent inhibition of nitric oxide generation in both lipopolysaccharide and interferon gamma induced mouse macrophage RAW 264.7 cells at the concentration of 10 uM.
Format: functional

SMILES	inhibition at 10 µM [%]
C=CC(C)(C)c1c2c(c(O)c3ccc(=O)oc13)C=CC(C)(C)O2 [NORDENTATIN]	91.2
C=CC(C)(C)c1cc2c(O)c3c(c(C(C)(C)C=C)c2oc1=O)OC(C)(C)C=C3 [CLAUSARIN]	91.2
C=CC(C)(C)Oc1c2c(c(C(C)(C)C=C)c3oc(=O)ccc13)OC(C)(C)C=C2	91.2

Organism: Mus musculus
Assay: Compound was tested for the inhibitory activity against mouse macrophage RAW 264.7 cells at the concentration of 50 uM; Inactive
Format: functional, cell-based

SMILES	Activity
C=CC(C)(C)c1c2c(c(O)c3ccc(=O)oc13)C=CC(C)(C)O2 [NORDENTATIN]	inactive
C=CC(C)(C)c1cc2c(O)c3c(c(C(C)(C)C=C)c2oc1=O)OC(C)(C)C=C3 [CLAUSARIN]	inactive
CC(C)=CCC/C(C)=C/CC/C(C)=C/COc1ccc2ccc(=O)oc2c1	inactive
CC(C)=CCOc1ccc2ccc(=O)oc2c1	inactive
CC(C)=CCc1c(O)ccc2ccc(=O)oc12	inactive
C=CC(C)(C)Oc1c2c(c(C(C)(C)C=C)c3oc(=O)ccc13)OC(C)(C)C=C2	inactive

Organism: Mus musculus
Assay: Percent inhibition of nitric oxide generation in both lipopolysaccharide and interferon gamma induced mouse macrophage RAW 264.7 cells
Format: functional

SMILES	Inhibition [%]
C=C(COC(=O)CC(C)C)C1OC1c1c(OC)ccc2ccc(=O)oc12 (stereo not drawn)	86.1
CC1(C)OC1COc1c2occc2cc2ccc(=O)oc12 (stereo not drawn) [HERACLENINPRANGENIN]	36.9
